Measured values reported in ChEMBL document CHEMBL3045196, “Relationships between Insecticidal Activity of 6-Alkylthio-2-pyridyl Methanesulfonates and Acetylcholinesterase Inhibition of their Sulfone Derivatives against Nephotettix cincticeps” (J Pestic Sci, 1990).

Tests used:
[1] = molecular target: Ace-orthologous acetylcholinesterase (Nephotettix cincticeps) (UniProt Q9NJH6); assay: Inhibition of susceptible Nephotettix cincticeps Ageo (green rice leafhopper) acetylcholinesterase activity
[2] = molecular target: Ace-orthologous acetylcholinesterase (Nephotettix cincticeps) (UniProt Q9NJH6); assay: Inhibition of susceptible Nephotettix cincticeps Izumi (green rice leafhopper) acetylcholinesterase activity
[3] = Methanol-water partition coefficient, log k of the compound; assay type: physicochemical
Nephotettix cincticeps [4] = assay: Insecticidal activity against susceptible Nephotettix cincticeps Ageo (green rice leafhopper)assessed as mortality by foliar-spray; assay type: functional
Nephotettix cincticeps [5] = assay: Insecticidal activity against resistant Nephotettix cincticeps Izumi (green rice leafhopper) assessed as mortality by foliar-spray; assay type: functional

Sequence of Ace-orthologous acetylcholinesterase (Nephotettix cincticeps) (Q9NJH6 20-677 limits assumed): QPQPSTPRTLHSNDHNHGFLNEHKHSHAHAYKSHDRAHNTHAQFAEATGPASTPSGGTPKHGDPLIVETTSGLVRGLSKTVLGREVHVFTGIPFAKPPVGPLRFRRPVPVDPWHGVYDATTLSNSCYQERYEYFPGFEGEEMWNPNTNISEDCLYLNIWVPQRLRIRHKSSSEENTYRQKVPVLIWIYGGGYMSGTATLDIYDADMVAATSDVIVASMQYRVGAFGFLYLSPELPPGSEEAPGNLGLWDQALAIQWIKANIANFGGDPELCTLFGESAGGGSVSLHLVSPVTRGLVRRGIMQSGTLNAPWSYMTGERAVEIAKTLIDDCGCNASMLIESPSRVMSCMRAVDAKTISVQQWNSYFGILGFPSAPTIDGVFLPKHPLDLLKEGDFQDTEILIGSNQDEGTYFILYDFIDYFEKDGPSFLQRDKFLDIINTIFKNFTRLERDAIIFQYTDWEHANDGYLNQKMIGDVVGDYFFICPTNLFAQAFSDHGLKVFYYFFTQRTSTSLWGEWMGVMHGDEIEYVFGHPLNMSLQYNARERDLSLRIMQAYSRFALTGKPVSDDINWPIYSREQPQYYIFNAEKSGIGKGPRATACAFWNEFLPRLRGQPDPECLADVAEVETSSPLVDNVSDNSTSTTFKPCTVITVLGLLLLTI

SMILES | log(1/I50) [1] | log(1/I50) [2] | log K [3] | log(1/LD50) (Nephotettix cincticeps [4]) | log(1/LD50) (Nephotettix cincticeps [5])
CS(=O)(=O)Oc1cccc(S(=O)(=O)Cc2ccccc2)n1 | 8.82 | 8.09 | 0.35 |  | 
CS(=O)(=O)Oc1cccc(S(C)(=O)=O)n1 | 7.17 |  | -0.602 |  | 
CSc1cccc(OS(C)(=O)=O)n1 |  |  | 0.259 | 6.71 | 5.74
CCCCCS(=O)(=O)c1cccc(OS(C)(=O)=O)n1 | 8.15 | 8 | 0.632 |  | 
CC(C)(C)S(=O)(=O)c1cccc(OS(C)(=O)=O)n1 | 7.28 | 7.07 | 0.085 |  | 
CS(=O)(=O)Oc1cccc(S(=O)(=O)C2CCCC2)n1 | 9.15 | 9.11 | 0.274 |  | 
CCCCSc1cccc(OS(C)(=O)=O)n1 |  |  | 0.425 | 8.3 | 7.41
CC(C)CCSc1cccc(OS(C)(=O)=O)n1 |  |  | 0.614 | 7.24 | 6.44
CS(=O)(=O)Oc1cccc(SCC2CC2)n1 |  |  | 0.192 | 8.64 | 7.8
CS(=O)(=O)Oc1cccc(S(=O)(=O)c2ccccc2)n1 | 8.14 | 8 | 0.236 |  | 
CC(C)Sc1cccc(OS(C)(=O)=O)n1 |  |  | 0.163 | 8.43 | 7.39
CC(C)CSc1cccc(OS(C)(=O)=O)n1 [6-(ISOBUTYLTHIO)PYRIDIN-2-YL METHANESULFONATE] |  |  | 0.399 | 8.16 | 7.95
CSCCSc1cccc(OS(C)(=O)=O)n1 |  |  | -0.174 | 7.7 | 6.54
CC(C)CS(=O)(=O)c1cccc(OS(C)(=O)=O)n1 | 9.15 | 8.4 | 0.274 |  | 
CCS(=O)(=O)c1cccc(OS(C)(=O)=O)n1 | 8.02 | 7.22 | -0.358 |  | 
CC(C)S(=O)(=O)c1cccc(OS(C)(=O)=O)n1 | 9.52 | 8.3 | -0.115 |  | 
CS(=O)(=O)Oc1cccc(SC2CCCC2)n1 |  |  | 0.447 | 8.39 | 7.82

SMILES | log(1/I50) [1] | log(1/I50) [2] | log K [3] | log(1/LD50) (Nephotettix cincticeps [4]) | log(1/LD50) (Nephotettix cincticeps [5])
CS(=O)(=O)Oc1cccc(Sc2ccccc2)n1 |  |  | 0.268 | 8.53 | 7.3
CS(=O)(=O)Oc1cccc(SCc2ccccc2)n1 |  |  | 0.33 | 7.91 | 6.97
CCCS(=O)(=O)c1cccc(OS(C)(=O)=O)n1 | 8.7 | 8.08 | -0.036 |  | 
CS(=O)(=O)Oc1cccc(S(=O)(=O)C2CCCCC2)n1 | 9.02 | 9.1 | 0.565 |  | 
CS(=O)(=O)Oc1cccc(SC2CCCCC2)n1 |  |  | 0.664 | 7.69 | 7.28
CCC(C)Sc1cccc(OS(C)(=O)=O)n1 (stereo not drawn) |  |  | 0.37 | 8.24 | 7.68
CCCC(C)S(=O)(=O)c1cccc(OS(C)(=O)=O)n1 (stereo not drawn) | 9.3 | 9.7 | 0.507 |  | 
CCSc1cccc(OS(C)(=O)=O)n1 |  |  | -0.034 | 8.14 | 7.33
CC(C)(C)CSc1cccc(OS(C)(=O)=O)n1 |  |  | 0.558 | 8.26 | 6.69
CC(C)CCS(=O)(=O)c1cccc(OS(C)(=O)=O)n1 | 7.77 | 7.8 | 0.576 |  | 
CCCSc1cccc(OS(C)(=O)=O)n1 |  |  | 0.196 | 8.57 | 7.65
CCCCCSc1cccc(OS(C)(=O)=O)n1 |  |  | 0.649 | 7.43 | 6.74
CCCCS(=O)(=O)c1cccc(OS(C)(=O)=O)n1 | 8.8 | 8.22 | 0.293 |  | 
CC(C)(C)Sc1cccc(OS(C)(=O)=O)n1 |  |  | 0.277 | 7.82 | 6.87
CCC(C)S(=O)(=O)c1cccc(OS(C)(=O)=O)n1 (stereo not drawn) | 8.7 | 9 | 0.188 |  | 
CCCC(C)Sc1cccc(OS(C)(=O)=O)n1 (stereo not drawn) |  |  | 0.59 | 7.65 | 7.41
